These are literature values, as cited in patent US12599665B2, “Gene fusions for control of genetically modified cells” (A2 Biotherapeutics, Inc., priority 2020, dated 2026).

The target in data set [1] is T1, ER(T2) (human ER LBD G400V/M543A/L544A) (Homo sapiens, UniProt P03372, G400V/L544A/M543A).
T1 construct: a human ER LBD and comprising point mutations G400V/M543A/L544A, which is termed ER(T2)
T1 sequence (P03372 311-547 G400V/M543A/L544A limits assumed): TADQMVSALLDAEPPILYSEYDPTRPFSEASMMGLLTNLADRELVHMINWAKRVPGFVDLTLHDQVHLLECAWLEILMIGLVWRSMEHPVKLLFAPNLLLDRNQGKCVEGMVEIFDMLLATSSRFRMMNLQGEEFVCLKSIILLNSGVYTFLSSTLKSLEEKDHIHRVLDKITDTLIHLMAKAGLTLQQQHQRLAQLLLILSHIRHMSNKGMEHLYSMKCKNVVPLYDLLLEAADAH
Particulars: ER(T2) vs ER(T); cited from earlier work.

In data set [2] the target is T2, Peroxisome proliferator-activated receptor-γ (NR1C3) (Homo sapiens, UniProt P37231).
T2 sequence (P37231 1-505): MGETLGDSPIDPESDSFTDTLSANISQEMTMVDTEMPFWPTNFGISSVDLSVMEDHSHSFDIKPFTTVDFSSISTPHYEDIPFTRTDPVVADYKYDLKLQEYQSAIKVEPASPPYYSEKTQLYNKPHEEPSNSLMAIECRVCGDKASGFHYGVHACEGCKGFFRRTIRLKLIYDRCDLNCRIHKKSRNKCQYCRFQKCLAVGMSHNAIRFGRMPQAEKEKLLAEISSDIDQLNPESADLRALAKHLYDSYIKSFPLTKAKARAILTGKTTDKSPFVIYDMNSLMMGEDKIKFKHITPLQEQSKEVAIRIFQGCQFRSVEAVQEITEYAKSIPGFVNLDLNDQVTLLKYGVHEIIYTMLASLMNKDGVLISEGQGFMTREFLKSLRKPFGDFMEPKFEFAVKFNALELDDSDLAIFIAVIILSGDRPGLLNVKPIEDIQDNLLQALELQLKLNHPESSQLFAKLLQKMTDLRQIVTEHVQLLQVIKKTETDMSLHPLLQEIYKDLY
Particulars: antagonist, Table 2, cited from earlier work.

The target of data set [3] is T3, Peroxisome proliferator-activated receptor-α (NR1C1) (Homo sapiens, UniProt Q07869).
T3 sequence (Q07869 1-468): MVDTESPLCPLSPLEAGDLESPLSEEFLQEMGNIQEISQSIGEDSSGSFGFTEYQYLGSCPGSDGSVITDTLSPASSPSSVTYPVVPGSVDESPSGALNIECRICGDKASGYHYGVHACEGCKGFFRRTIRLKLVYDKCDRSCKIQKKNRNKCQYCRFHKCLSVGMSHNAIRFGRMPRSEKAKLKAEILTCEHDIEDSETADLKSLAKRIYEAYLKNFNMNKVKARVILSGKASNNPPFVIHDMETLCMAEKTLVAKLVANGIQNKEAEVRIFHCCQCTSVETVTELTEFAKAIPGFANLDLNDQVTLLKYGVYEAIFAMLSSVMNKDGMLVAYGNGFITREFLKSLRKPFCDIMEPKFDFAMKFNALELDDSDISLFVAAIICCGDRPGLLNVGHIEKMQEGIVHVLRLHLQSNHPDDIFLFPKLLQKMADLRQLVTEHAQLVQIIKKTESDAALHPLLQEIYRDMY
Particulars: antagonist, Table 2; cited from earlier work.

In data set [4] the target is Estrogen receptor-β (NR3A2) (Homo sapiens, UniProt Q92731). Conditions: antagonist, Table 2; cited from earlier work.
A further data set addresses T4, Rev-Erb-α (NR1D1) (Homo sapiens, UniProt P20393).
T4 sequence (P20393 1-614): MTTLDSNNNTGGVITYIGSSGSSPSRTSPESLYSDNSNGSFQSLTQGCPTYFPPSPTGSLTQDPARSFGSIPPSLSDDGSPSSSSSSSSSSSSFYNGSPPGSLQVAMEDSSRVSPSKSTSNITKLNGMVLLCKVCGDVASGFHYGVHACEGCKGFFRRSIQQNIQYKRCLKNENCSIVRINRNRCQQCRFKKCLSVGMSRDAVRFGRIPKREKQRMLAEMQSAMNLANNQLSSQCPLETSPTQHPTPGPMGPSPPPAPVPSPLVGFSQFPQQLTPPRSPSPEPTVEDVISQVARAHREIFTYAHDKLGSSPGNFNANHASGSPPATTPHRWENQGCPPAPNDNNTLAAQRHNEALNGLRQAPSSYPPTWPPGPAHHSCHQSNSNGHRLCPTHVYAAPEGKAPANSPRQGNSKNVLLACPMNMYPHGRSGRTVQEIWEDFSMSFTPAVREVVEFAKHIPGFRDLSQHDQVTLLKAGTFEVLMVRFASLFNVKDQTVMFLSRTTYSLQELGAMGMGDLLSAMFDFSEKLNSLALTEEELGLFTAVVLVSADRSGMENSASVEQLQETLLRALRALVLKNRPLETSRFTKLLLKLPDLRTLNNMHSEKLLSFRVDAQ
Particulars: antagonist, Table 2; cited from earlier work.

Data set [5] addresses T5, Vitamin D receptor (Gallus gallus, UniProt O42392).
T5 sequence (O42392 1-451): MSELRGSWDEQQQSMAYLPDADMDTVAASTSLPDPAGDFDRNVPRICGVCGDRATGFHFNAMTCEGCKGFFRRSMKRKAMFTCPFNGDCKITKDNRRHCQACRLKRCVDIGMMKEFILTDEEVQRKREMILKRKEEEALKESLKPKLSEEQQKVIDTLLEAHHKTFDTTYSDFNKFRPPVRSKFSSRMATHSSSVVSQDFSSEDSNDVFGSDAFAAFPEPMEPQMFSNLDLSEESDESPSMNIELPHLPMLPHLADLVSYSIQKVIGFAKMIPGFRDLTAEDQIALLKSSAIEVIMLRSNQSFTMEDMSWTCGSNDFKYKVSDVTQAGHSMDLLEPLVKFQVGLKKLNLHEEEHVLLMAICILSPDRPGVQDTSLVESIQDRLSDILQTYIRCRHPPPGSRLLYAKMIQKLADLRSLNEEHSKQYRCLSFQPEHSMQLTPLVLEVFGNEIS
Conditions: antagonist, Table 2; Chicken; cited from earlier work.

Data set [6] addresses T6, Vitamin D receptor (Homo sapiens, UniProt P11473).
T6 sequence (P11473 1-427): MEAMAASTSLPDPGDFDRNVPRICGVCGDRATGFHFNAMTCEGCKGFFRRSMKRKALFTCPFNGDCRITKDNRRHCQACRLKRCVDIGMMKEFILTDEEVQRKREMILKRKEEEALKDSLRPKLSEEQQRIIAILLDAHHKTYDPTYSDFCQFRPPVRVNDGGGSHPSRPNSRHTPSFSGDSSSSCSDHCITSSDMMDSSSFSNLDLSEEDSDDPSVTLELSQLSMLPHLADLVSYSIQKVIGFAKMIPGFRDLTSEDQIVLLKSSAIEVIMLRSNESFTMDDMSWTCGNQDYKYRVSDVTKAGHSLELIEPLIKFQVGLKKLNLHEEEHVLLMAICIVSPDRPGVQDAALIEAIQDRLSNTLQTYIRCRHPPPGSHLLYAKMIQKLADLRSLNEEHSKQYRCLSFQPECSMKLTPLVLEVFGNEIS
Particulars: antagonist, Table 2; cited from earlier work.

In data set [7] the target is T7, Mineralocorticoid receptor (NR3C2) (Homo sapiens, UniProt P08235).
T7 sequence (P08235 1-984): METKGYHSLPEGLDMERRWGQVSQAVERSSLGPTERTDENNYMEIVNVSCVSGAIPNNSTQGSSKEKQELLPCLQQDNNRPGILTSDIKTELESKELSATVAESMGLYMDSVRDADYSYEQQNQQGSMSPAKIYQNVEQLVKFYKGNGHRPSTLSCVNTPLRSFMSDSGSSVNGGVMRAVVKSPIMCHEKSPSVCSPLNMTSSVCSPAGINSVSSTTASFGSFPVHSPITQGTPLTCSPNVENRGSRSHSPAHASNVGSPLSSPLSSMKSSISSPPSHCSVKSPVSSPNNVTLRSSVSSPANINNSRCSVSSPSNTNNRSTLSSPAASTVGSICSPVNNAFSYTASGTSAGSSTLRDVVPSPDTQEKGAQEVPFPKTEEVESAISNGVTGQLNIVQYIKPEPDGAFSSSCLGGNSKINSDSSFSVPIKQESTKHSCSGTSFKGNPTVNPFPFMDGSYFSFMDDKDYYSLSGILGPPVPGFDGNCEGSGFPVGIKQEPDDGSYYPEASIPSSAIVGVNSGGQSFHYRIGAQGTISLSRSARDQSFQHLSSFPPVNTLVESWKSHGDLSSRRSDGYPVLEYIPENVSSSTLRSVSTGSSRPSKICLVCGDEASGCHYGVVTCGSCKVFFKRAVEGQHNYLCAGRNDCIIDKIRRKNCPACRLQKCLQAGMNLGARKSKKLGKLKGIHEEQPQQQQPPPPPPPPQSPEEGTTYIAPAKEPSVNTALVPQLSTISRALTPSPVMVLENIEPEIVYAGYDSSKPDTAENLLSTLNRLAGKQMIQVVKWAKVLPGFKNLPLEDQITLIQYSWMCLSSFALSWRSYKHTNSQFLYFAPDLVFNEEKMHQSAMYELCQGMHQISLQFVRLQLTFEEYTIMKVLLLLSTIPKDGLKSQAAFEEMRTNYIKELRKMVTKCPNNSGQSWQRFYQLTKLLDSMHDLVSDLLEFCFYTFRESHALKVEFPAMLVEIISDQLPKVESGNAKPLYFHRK
Conditions: antagonist, Table 2; cited from earlier work.

For data set [8], the target named is T8, Glucocorticoid receptor (NR3C1) (Homo sapiens, UniProt P04150).
T8 sequence (P04150 1-777): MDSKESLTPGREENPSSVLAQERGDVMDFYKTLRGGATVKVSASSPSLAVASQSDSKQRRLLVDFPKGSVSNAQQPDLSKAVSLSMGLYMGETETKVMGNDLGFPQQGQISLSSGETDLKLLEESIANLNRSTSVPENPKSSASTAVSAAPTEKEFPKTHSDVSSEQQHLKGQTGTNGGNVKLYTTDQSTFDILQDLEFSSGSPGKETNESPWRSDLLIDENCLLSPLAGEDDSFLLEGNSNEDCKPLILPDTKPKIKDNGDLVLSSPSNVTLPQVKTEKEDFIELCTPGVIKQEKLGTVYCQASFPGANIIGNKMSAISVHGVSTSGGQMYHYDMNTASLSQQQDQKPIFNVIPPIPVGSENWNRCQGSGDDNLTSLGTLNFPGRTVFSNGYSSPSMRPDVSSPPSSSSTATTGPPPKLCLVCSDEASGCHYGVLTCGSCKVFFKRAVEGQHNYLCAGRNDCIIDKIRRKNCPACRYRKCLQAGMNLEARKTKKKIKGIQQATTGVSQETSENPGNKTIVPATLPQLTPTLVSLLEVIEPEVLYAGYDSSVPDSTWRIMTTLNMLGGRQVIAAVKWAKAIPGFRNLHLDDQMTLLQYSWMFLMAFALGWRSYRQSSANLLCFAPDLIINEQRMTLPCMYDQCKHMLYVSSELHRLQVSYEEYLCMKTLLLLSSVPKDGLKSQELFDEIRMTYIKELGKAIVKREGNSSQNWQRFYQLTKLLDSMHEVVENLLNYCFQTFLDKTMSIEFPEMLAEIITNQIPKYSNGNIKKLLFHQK
Conditions: antagonist, Table 2; cited from earlier work.

Chain of Estrogen receptor-β (NR3A2) (Q92731 whole entry): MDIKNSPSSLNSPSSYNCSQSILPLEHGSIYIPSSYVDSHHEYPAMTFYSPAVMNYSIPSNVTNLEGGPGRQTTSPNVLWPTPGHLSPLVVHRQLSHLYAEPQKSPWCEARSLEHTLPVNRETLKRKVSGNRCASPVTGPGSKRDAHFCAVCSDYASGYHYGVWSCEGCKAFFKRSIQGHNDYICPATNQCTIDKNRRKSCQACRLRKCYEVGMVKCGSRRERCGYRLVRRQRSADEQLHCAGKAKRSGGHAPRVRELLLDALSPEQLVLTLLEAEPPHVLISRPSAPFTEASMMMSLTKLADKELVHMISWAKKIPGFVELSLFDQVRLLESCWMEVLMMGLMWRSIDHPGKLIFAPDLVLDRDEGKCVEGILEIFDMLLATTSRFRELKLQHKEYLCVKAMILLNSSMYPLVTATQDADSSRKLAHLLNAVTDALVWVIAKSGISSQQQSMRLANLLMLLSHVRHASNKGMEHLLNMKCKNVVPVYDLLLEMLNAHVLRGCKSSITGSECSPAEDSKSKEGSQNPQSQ

Turning to 4-hydroxytamoxifen [4-OH-Tamoxifen], the “sensitivity of ER(T2) to 4-OH-Tamoxifen relative to the ER(T) mutant” value in [1] is reported as “roughly 10 fold”.

`COC(=O)[C@]12CCC(C)(C)C[C@H]1[C@H]1C(=O)C=C3[C@@]4(C)C=C(C#N)C(=O)C(C)(C)[C@@H]4CC[C@@]3(C)[C@]1(C)CC2` [CDDO-Me, Bardoxolone methyl]: the pKi in data set [2] was 6.9).

Regarding `CCC(=O)NC[C@H](Cc1ccc(OCCc2nc(-c3ccccc3)oc2C)cc1)N/C(C)=C\C(=O)c1ccc(C(F)(F)F)cc1` [GW6471], in [3], the pIC50 entry is given as “(pIC50 6.6)”.

For the molecule `O=C(Nc1ccccc1)c1cc([N+](=O)[O-])ccc1Cl` [GW9662], the pIC50 result in data set [2] (Irreversible inhibition) is listed as “(pIC50 8.1)”.

On to `Oc1ccc(-c2c(-c3ccccc3)nn3c(C(F)(F)F)cc(C(F)(F)F)nc23)cc1` [PHTPP], for which the pKi entry in data set [4] is recorded as “(pKi 6.9) (CAS”.

For the molecule `CC[C@@H]1Cc2cc(O)ccc2C2=C1c1ccc(O)cc1C[C@H]2CC` [R,R-THC], the pKi in data set [4] is on record as 8.4) (CAS.

Take `CCOC(=O)C1Cc2ccccc2CN1C(=O)c1ccc(SC)s1` (stereo not drawn) [SR8278]: the pIC50 at Rev-Erb-α (NR1D1) is recorded as 6.5) (CAS.

For the molecule `C=C1C[C@H](C[C@@H](C)[C@H]2CC[C@H]3/C(=C/C=C4/C[C@@H](O)C[C@H](O)C4=C)CCC[C@]23C)OC1=O` [TEI-9647], the pIC50 entry on Vitamin D receptor [5] is listed as “(pIC50 8.2)”.

As for `C=C1/C(=C\C=C2/CCC[C@]3(C)[C@@H]([C@H](C)/C=C/[C@@H](O)C4(C(=O)OCCCC)CC4)CC[C@@H]23)C[C@@H](O)C[C@@H]1O` [ZK159222], the pIC50 result at Vitamin D receptor [6] is “(pIC50 7.5)”.

Regarding `CCOc1ncc(C)c2c1[C@H](c1ccc(C#N)cc1OC)C(C(N)=O)=C(C)N2` [finerenone], the pIC50 entry in data set [7] is on record as “(pIC50 7.7),”.

For `CN(C)c1ccc([C@H]2C[C@]3(C)[C@@H](CC[C@]3(O)CCCO)[C@@H]3CCC4=CC(=O)CCC4=C32)cc1` [onapristone], the values for the pIC50 result in [7] and in data set [8] were “(pIC50 6.3),” and “(pIC50 7.6),”, respectively.
